Laboratory results from article PMC5374409, “D11-Mediated Inhibition of Protein Kinase CK2 Impairs HIF-1α-Mediated Signaling in Human Glioblastoma Cells” (Pharmaceuticals, 2017).

Biological target: T1, protein kinase CK2 (CK2α) (Homo sapiens, UniProt P68400)
T1 construct: gene CSNK2A1
Assay: radioactive kinase assay with recombinant CK2 and synthetic peptide, varied ATP, Michaelis-Menten re-plots
Type: biochemical

T1 sequence (P68400 1-335): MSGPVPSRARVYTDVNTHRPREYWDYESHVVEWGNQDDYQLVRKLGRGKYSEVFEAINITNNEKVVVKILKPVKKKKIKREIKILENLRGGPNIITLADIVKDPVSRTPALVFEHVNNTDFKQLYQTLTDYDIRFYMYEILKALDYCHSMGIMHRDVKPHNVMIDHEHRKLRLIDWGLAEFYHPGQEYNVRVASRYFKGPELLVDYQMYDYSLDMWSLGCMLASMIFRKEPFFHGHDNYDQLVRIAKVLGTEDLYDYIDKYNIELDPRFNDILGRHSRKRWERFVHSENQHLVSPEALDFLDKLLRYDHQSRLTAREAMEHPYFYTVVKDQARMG
T1 sequence (P67870 2-215 partner): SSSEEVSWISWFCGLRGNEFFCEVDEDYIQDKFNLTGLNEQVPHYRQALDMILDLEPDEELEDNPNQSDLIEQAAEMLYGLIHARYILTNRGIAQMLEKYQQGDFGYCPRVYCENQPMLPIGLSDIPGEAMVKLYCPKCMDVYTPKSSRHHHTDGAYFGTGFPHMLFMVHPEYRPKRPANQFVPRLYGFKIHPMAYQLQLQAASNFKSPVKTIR

Ki: 7.7 nM
SMILES: COc1ccc(/N=C/c2c(O)ccc3c2oc2cc(Cl)c(O)c(Cl)c23)cc1 [D11, 1,3-dichloro-6-[(E)-((4-methoxyphenyl)imino)methyl]dibenzo(b,d)furan-2,7-diol]
